Assay results taken from the CheMixHub ionic liquid set.
± gives the uncertainty stated by the source.

Assay: xn = mol fraction of the nth substance listed

C[N+](C)(C)CCC[n+]1ccccc1.N#C[N-]C#N.N#C[N-]C#N + CCO
viscosity [mPa·s], 100 kPa
Settings	x1 = 0.0999	x1 = 0.2001	x1 = 0.3002	x1 = 0.3999	x1 = 0.5002	x1 = 0.6001	x1 = 0.7003	x1 = 0.7998	x1 = 0.8995	x1 = 1
293.15 K	6.55 ± 0.66	15.6 ± 1.6	38 ± 3.8	75.8 ± 7.7	137 ± 14	243 ± 27	391 ± 46	614 ± 78	1038 ± 140	2191 ± 340
303.15 K	5.09 ± 0.51	11.8 ± 1.2	25.6 ± 2.6	49.2 ± 4.9	88.3 ± 9	138 ± 14	205 ± 22	291 ± 33	435 ± 52	830 ± 110
313.15 K	4.23 ± 0.43	9.28 ± 0.93	20.7 ± 2.1	34.4 ± 3.5	58.2 ± 5.8	84.3 ± 8.5	119 ± 12	161 ± 17	229 ± 25	386 ± 46
323.15 K	3.55 ± 0.36	7.47 ± 0.75	15.7 ± 1.6	25.2 ± 2.5	38.9 ± 3.9	56.2 ± 5.6	75.8 ± 7.6	99 ± 10	134 ± 14	210 ± 23
333.15 K	3.1 ± 0.31	6.12 ± 0.62	11.9 ± 1.2	18 ± 1.8	28 ± 2.8	39.6 ± 4	51.4 ± 5.1	65.1 ± 6.5	85.3 ± 8.6	127 ± 13

CCCC[P+](CC)(CC)CC.N#Cc1ccc[n-]1 + OCC(O)CO
100 kPa
Settings	electrical conductivity, 293.15 K [S/m]	viscosity, 293.15 K [mPa·s]	viscosity, 298.15 K [mPa·s]	viscosity, 303.15 K [mPa·s]	viscosity, 313.15 K [mPa·s]
x1 = 0.002	0.0013 ± 0.0001	–	–	–	–
x1 = 0.004	0.0027 ± 0.0003	1395 ± 210	880 ± 130	562 ± 83	226 ± 33
x1 = 0.006	0.0041 ± 0.0004	–	–	–	–
x1 = 0.008	0.0055 ± 0.0006	–	–	–	–
x1 = 0.011	0.0073 ± 0.0007	–	–	–	–
x1 = 0.014	0.009 ± 0.0009	–	–	–	–
x1 = 0.018	0.0106 ± 0.0011	1500 ± 230	950 ± 140	599 ± 89	234 ± 34
x1 = 0.021	0.0118 ± 0.0012	–	–	–	–
x1 = 0.026	0.0135 ± 0.0014	–	–	–	–
x1 = 0.029	0.0143 ± 0.0014	–	–	–	–
x1 = 0.033	0.0151 ± 0.0015	–	–	–	–
x1 = 0.04	0.0162 ± 0.0016	1598 ± 250	1015 ± 150	648 ± 96	256 ± 38
x1 = 0.047	0.0175 ± 0.0018	–	–	–	–
x1 = 0.058	0.0181 ± 0.0018	1701 ± 260	1080 ± 170	690 ± 100	282 ± 41
x1 = 0.068	0.0188 ± 0.0019	–	–	–	–
x1 = 0.08	0.0186 ± 0.0019	1713 ± 270	1086 ± 170	690 ± 100	277 ± 41
x1 = 0.104	0.0187 ± 0.0019	1609 ± 250	1023 ± 160	655 ± 98	268 ± 39
x1 = 0.129	0.0185 ± 0.0019	1486 ± 230	930 ± 140	569 ± 85	222 ± 33
x1 = 0.187	0.018 ± 0.0018	1202 ± 180	770 ± 120	483 ± 71	200 ± 29
x1 = 0.259	0.0182 ± 0.0018	930 ± 140	603 ± 90	386 ± 57	166 ± 24
x1 = 0.34	0.0225 ± 0.0023	740 ± 110	487 ± 72	318 ± 46	142 ± 21
x1 = 0.442	0.0297 ± 0.0031	589 ± 88	398 ± 59	265 ± 39	123 ± 18
x1 = 0.577	0.0413 ± 0.0043	479 ± 71	323 ± 47	220 ± 32	107 ± 15
x1 = 0.743	0.0623 ± 0.0063	359 ± 52	242 ± 35	168 ± 24	81 ± 12
x1 = 0.85	0.0878 ± 0.0089	250 ± 36	175 ± 25	123 ± 17	62 ± 9
x1 = 1	0.147 ± 0.015	187 ± 27	137 ± 19	104 ± 15	62 ± 9

CCCCCC[n+]1ccn(C)c1.[Cl-] + O
Settings	electrical conductivity [S/m]	viscosity [mPa·s]
278.15 K, 100 kPa, x1 = 8.613e-05	–	1.531 ± 0.011
278.15 K, 100 kPa, x1 = 0.0001839	–	1.539 ± 0.011
278.15 K, 100 kPa, x1 = 0.0003576	–	1.551 ± 0.012
278.15 K, 100 kPa, x1 = 0.0005405	–	1.562 ± 0.012
278.15 K, 100 kPa, x1 = 0.000744	–	1.573 ± 0.012
278.15 K, 100 kPa, x1 = 0.0009399	–	1.585 ± 0.012
278.15 K, 100 kPa, x1 = 0.001103	–	1.596 ± 0.012
278.15 K, 100 kPa, x1 = 0.001379	–	1.613 ± 0.012
278.15 K, 100 kPa, x1 = 0.001677	–	1.641 ± 0.012
283.15 K, 100 kPa, x1 = 8.613e-05	–	1.314 ± 0.01
283.15 K, 100 kPa, x1 = 0.0001839	–	1.32 ± 0.01
283.15 K, 100 kPa, x1 = 0.0003576	–	1.329 ± 0.01
283.15 K, 100 kPa, x1 = 0.0005405	–	1.337 ± 0.01
283.15 K, 100 kPa, x1 = 0.000744	–	1.348 ± 0.01
283.15 K, 100 kPa, x1 = 0.0009399	–	1.358 ± 0.01
283.15 K, 100 kPa, x1 = 0.001103	–	1.369 ± 0.01
283.15 K, 100 kPa, x1 = 0.001379	–	1.381 ± 0.01
283.15 K, 100 kPa, x1 = 0.001677	–	1.401 ± 0.011
288.15 K, 100 kPa, x1 = 8.613e-05	–	1.145 ± 0.009
288.15 K, 100 kPa, x1 = 0.0001839	–	1.15 ± 0.009
288.15 K, 100 kPa, x1 = 0.0003576	–	1.158 ± 0.009
288.15 K, 100 kPa, x1 = 0.0005405	–	1.166 ± 0.009
288.15 K, 100 kPa, x1 = 0.000744	–	1.174 ± 0.009
288.15 K, 100 kPa, x1 = 0.0009399	–	1.181 ± 0.009
288.15 K, 100 kPa, x1 = 0.001103	–	1.188 ± 0.009
288.15 K, 100 kPa, x1 = 0.001379	–	1.2 ± 0.009
288.15 K, 100 kPa, x1 = 0.001677	–	1.219 ± 0.009
293.15 K, 100 kPa, x1 = 8.613e-05	–	1.008 ± 0.008
293.15 K, 100 kPa, x1 = 0.0001839	–	1.013 ± 0.008
293.15 K, 100 kPa, x1 = 0.0003576	–	1.019 ± 0.008
293.15 K, 100 kPa, x1 = 0.0005405	–	1.025 ± 0.008
293.15 K, 100 kPa, x1 = 0.000744	–	1.033 ± 0.008
293.15 K, 100 kPa, x1 = 0.0009399	–	1.039 ± 0.008
293.15 K, 100 kPa, x1 = 0.001103	–	1.044 ± 0.008
293.15 K, 100 kPa, x1 = 0.001379	–	1.054 ± 0.008
293.15 K, 100 kPa, x1 = 0.001677	–	1.069 ± 0.008
298.15 K, 100 kPa, x1 = 0.0001839	–	0.899 ± 0.007
298.15 K, 100 kPa, x1 = 0.0003576	–	0.905 ± 0.007
298.15 K, 100 kPa, x1 = 0.0005405	–	0.911 ± 0.007
298.15 K, 100 kPa, x1 = 0.000744	–	0.917 ± 0.007
298.15 K, 100 kPa, x1 = 0.0009399	–	0.922 ± 0.007
298.15 K, 100 kPa, x1 = 0.001103	–	0.928 ± 0.007
298.15 K, 100 kPa, x1 = 0.001379	–	0.936 ± 0.007
298.15 K, 100 kPa, x1 = 0.001677	–	0.949 ± 0.007
298.15 K, 101.3 kPa, x1 = 4.23e-06	0.00276 ± 3e-05	–
298.15 K, 101.3 kPa, x1 = 7.11e-06	0.00451 ± 5e-05	–
298.15 K, 101.3 kPa, x1 = 1.01e-05	0.00631 ± 6e-05	–
298.15 K, 101.3 kPa, x1 = 1.293e-05	0.008 ± 8e-05	–
298.15 K, 101.3 kPa, x1 = 1.551e-05	0.00953 ± 0.0001	–
298.15 K, 101.3 kPa, x1 = 1.836e-05	0.01121 ± 0.00011	–
298.15 K, 101.3 kPa, x1 = 2.116e-05	0.0129 ± 0.00013	–
298.15 K, 101.3 kPa, x1 = 2.393e-05	0.0145 ± 0.00015	–
298.15 K, 101.3 kPa, x1 = 2.652e-05	0.016 ± 0.00016	–
298.15 K, 101.3 kPa, x1 = 2.919e-05	0.0175 ± 0.00018	–
303.15 K, 100 kPa, x1 = 8.613e-05	–	0.802 ± 0.006
303.15 K, 100 kPa, x1 = 0.0001839	–	0.805 ± 0.006
303.15 K, 100 kPa, x1 = 0.0003576	–	0.81 ± 0.006
303.15 K, 100 kPa, x1 = 0.0005405	–	0.815 ± 0.006
303.15 K, 100 kPa, x1 = 0.000744	–	0.82 ± 0.006
303.15 K, 100 kPa, x1 = 0.0009399	–	0.825 ± 0.006
303.15 K, 100 kPa, x1 = 0.001103	–	0.829 ± 0.006
303.15 K, 100 kPa, x1 = 0.001379	–	0.836 ± 0.006
303.15 K, 100 kPa, x1 = 0.001677	–	0.847 ± 0.007
308.15 K, 100 kPa, x1 = 8.613e-05	–	0.723 ± 0.006
308.15 K, 100 kPa, x1 = 0.0001839	–	0.726 ± 0.006
308.15 K, 100 kPa, x1 = 0.0003576	–	0.73 ± 0.006
308.15 K, 100 kPa, x1 = 0.0005405	–	0.734 ± 0.006
308.15 K, 100 kPa, x1 = 0.000744	–	0.739 ± 0.006
308.15 K, 100 kPa, x1 = 0.0009399	–	0.743 ± 0.006
308.15 K, 100 kPa, x1 = 0.001103	–	0.747 ± 0.006
308.15 K, 100 kPa, x1 = 0.001379	–	0.753 ± 0.006
308.15 K, 100 kPa, x1 = 0.001677	–	0.762 ± 0.006
313.15 K, 100 kPa, x1 = 8.613e-05	–	0.656 ± 0.005
313.15 K, 100 kPa, x1 = 0.0001839	–	0.659 ± 0.005
313.15 K, 100 kPa, x1 = 0.0003576	–	0.662 ± 0.005
313.15 K, 100 kPa, x1 = 0.0005405	–	0.666 ± 0.005
313.15 K, 100 kPa, x1 = 0.000744	–	0.67 ± 0.005
313.15 K, 100 kPa, x1 = 0.0009399	–	0.673 ± 0.005
313.15 K, 100 kPa, x1 = 0.001103	–	0.677 ± 0.005
313.15 K, 100 kPa, x1 = 0.001379	–	0.683 ± 0.005
313.15 K, 100 kPa, x1 = 0.001677	–	0.691 ± 0.005
